Measurements as given in patent US8361765B2, “Enzymic method for the enantioselective reduction of keto compounds” (IEP GmbH, priority 2001, dated 2013).

How the values were obtained:
[1] = tested on: L. minor alcohol dehydrogenase; test: Enzyme stability in organic solvents; format: biochemical, Lactobacillus minor; conditions: for Enzyme activity relative to starting value, t = 2 h / Enzyme activity relative to starting value, t = 8 h / Enzyme activity relative to starting value, t = 24 h / Enzyme activity relative to starting value, t = 48 h: room temperature; for action of the solvent on the alcohol dehydrogenase (in words): Table 7
Procedure: The stability of the enzyme when contacted with organic solvents was studied by diluting L. minor alcohol dehydrogenase 1:100 in the solvent mixtures listed, followed by incubation at room temperature (for organic solvents not miscible with water, the dilution refers to the aqueous phase). Continuous mixing of both phases was ensured (shaker, 200 rpm). 10 μl of the enzyme solution were then used in the standard assay mixture. Here too, the starting value was set to 100% after dilution in the buffer (triethanolamine buffer 100 mM, pH=7.0, 1 mM MgCl2), with all other values being related to this value.

[2] = tested on: alcohol dehydrogenase from Lactobacillus minor; test: Spectrum of substrates; format: biochemical; conditions: 10 mM keto compound as substrate, 0.19 mM NADPH, pH 7.0; activity with ethyl 4-chloro-3-oxo-butanoate set to 100%
Procedure: Furthermore, substrates other than ethyl 4-chloro-3-oxo-butanoate were also used in the enzymic assay mixture. For this purpose, the following assay mixture was used: • 970 μl of triethanolamine buffer (100 mM, pH=7.0, 1 mM MgCl2 containing 10 mM keto compound) • 20 μl of NADPH (0.19 mM in assay mixture) • 10 μl of enzyme (1:100)
The activity determined with ethyl 4-chloro-3-oxo-butanoate was set to 100% and the enzyme activities of the other substrates were related to this value.

[3] = octanol/water; cited from earlier work
[4] = 20% solvent not miscible with water, two phases shaken 200 rpm
[5] = 10% water-miscible solvent in buffer
[6] = 20% water-miscible solvent in buffer

Row | SMILES | Enzyme activity relative to starting value, t = 2 h [1, 4] [%] | Enzyme activity relative to starting value, t = 8 h [1, 4] [%] | Enzyme activity relative to starting value, t = 24 h [1, 4] [%] | Enzyme activity relative to starting value, t = 48 h [1, 4] [%] | action of the solvent on the alcohol dehydrogenase (in words) [1] | logP [3] | other results
1 | CCCCCCCC [octane] | 87 | 47 | 2 | 1 | do not exhibit this stabilizing action | – | –
2 | CCOC(=O)C(C)=O [Ethyl pyruvate] | – | – | – | – | – | – | Activity in % (n = 2) [2]: 192.3 ± 11.5%
3 | C[S+](C)[O-] [DMSO, dimethyl sulfoxide] | – | – | – | – | activating and, respectively, stabilizing action | – | Enzyme activity relative to starting value, t = 2 h [1, 5]: 73%; Enzyme activity relative to starting value, t = 8 h [1, 5]: 54%; Enzyme activity relative to starting value, t = 24 h [1, 5]: 60%; Enzyme activity relative to starting value, t = 48 h [1, 5]: 40%; Enzyme activity relative to starting value, t = 2 h [1, 6]: 73%; Enzyme activity relative to starting value, t = 8 h [1, 6]: 54%; Enzyme activity relative to starting value, t = 24 h [1, 6]: 57%; Enzyme activity relative to starting value, t = 48 h [1, 6]: 40%
4 | CCOCC [diethyl ether] | 53 | 42 | 37 | 23 | – | 0.85 | –
5 | OCC(O)CO [glycerol] | – | – | – | – | activating and, respectively, stabilizing action | −3 | Enzyme activity relative to starting value, t = 2 h [1, 5]: 120%; Enzyme activity relative to starting value, t = 8 h [1, 5]: 64%; Enzyme activity relative to starting value, t = 24 h [1, 5]: 62%; Enzyme activity relative to starting value, t = 48 h [1, 5]: 28%; Enzyme activity relative to starting value, t = 2 h [1, 6]: 120%; Enzyme activity relative to starting value, t = 8 h [1, 6]: 100%; Enzyme activity relative to starting value, t = 24 h [1, 6]: 100%; Enzyme activity relative to starting value, t = 48 h [1, 6]: 104%
6 | CCOC(=O)CC(=O)CCl [Ethyl 4-chloro-3-oxo-butanoate] | – | – | – | – | – | – | Activity in % (n = 2) [2]: 100%
7 | CC(C)OC(C)C [diisopropyl ether] | 100 | 57 | 41 | 29 | – | 1.55 | –
8 | CCCCC [pentane] | 74 | 55 | 7 | 6 | do not exhibit this stabilizing action | 3 | –
9 | CC(C)O [isopropanol] | – | – | – | – | inactivating action | – | –
10 | CCCCCC [hexane] | 80 | 39 | 2 | 5 | do not exhibit this stabilizing action | – | –
11 | CCOC(C)=O [ethyl acetate] | 87 | 50 | 10 | 8 | – | – | –
12 | CCCCCCC [heptane] | 51 | 49 | 7 | 6 | do not exhibit this stabilizing action | 4 | –
13 | COC(C)(C)C [tert-butyl methyl ether] | 67 | 51 | 38 | 24 | – | 1.21 | –
14 | COC(=O)CC(C)=O [Methyl acetoacetate] | – | – | – | – | – | – | Activity in % (n = 2) [2]: 120 ± 7.7%
15 | OC[C@@H](O)[C@@H](O)[C@H](O)[C@@H](O)CO [sorbitol] | – | – | – | – | activating and, respectively, stabilizing action | – | Enzyme activity relative to starting value, t = 2 h ([1]; 1M in buffer): 93%; Enzyme activity relative to starting value, t = 8 h ([1]; 1M in buffer): 74%; Enzyme activity relative to starting value, t = 24 h ([1]; 1M in buffer): 60%; Enzyme activity relative to starting value, t = 48 h ([1]; 1M in buffer): 6%
16 | CCCCCCC(C)=O [2-Octanone] | – | – | – | – | – | – | Activity in % (n = 2) [2]: 90.8 ± 1.2%
17 | CCOC(=O)C(=O)CCc1ccccc1 [Ethyl 2-oxo-4-phenylbutyrate] | – | – | – | – | – | – | Activity in % (n = 2) [2]: 62.7 ± 4.8%
